# Experimental data as given in patent US9732093B2, “FLAP modulators” (JANSSEN PHARMACEUTICA NV, priority 2013, dated 2017).
# Target: human FLAP (Homo sapiens (Human), UniProt P20292)
# Test: FLAP binding assay (HTRF format)
# Settings: human FLAP wild type membranes, HTRF format; Table 6 (additional runs)
# Procedure: The ability of the compounds of the present invention to treat a FLAP-mediated disease and/or disorder, or associated symptoms or complications thereof, was determined using the following procedures. Binding assay data represent the average value obtained from two different assay plates, with samples run in duplicate on each plate. Human whole blood assay data represent a single replicate on an assay plate using whole blood from at least one healthy donor.
# Data are expressed as a HTRF ratio.
# Sequence of human FLAP (P20292 whole entry): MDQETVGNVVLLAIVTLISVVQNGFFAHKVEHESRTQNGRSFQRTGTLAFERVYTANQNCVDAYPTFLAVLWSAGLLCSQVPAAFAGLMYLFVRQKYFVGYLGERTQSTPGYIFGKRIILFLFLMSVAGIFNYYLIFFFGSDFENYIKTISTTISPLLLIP
row,SMILES,Ki [nM]
1,"Nc1cnc(-c2ccc(C3CCC3)c(OCC3CCCNC3)c2F)cn1 (racemic) [Example 299, racemic 5-[4-Cyclobutyl-2-fluoro-3-(piperidin-3-ylmethoxy)phenyl]pyrazin-2-amine]",1960
2,"Nc1cnc(-c2ccc(C3CCC3)c(OCc3ccc(C(F)(F)F)cc3)c2F)cn1 [Compound 1, 5-(4-Cyclobutyl-2-fluoro-3-{[4-(trifluoromethyl)benzyl]oxy}phenyl)pyrazin-2-amine]",62.8
3,"Nc1cnc(-c2ccc(C3CCC3)c(OCc3ccccc3C(F)(F)F)c2F)cn1 [Compound 3, 5-(4-Cyclobutyl-2-fluoro-3-{[2-(trifluoromethyl)benzyl]oxy}phenyl)pyrazin-2-amine]",118
4,"Nc1cnc(-c2ccc(C3CCC3)c(OCc3cccc(C(=O)O)c3)c2F)cn1 [Compound 4, 3-{[3-(5-Aminopyrazin-2-yl)-6-cyclobutyl-2-fluorophenoxy]methyl}benzoic acid]",5.8
5,"Nc1cnc(-c2ccc(C3CCC3)c(OCc3ccc(C(=O)O)cc3)c2F)cn1 [Compound 5, 4-{[3-(5-Aminopyrazin-2-yl)-6-cyclobutyl-2-fluorophenoxy]methyl}benzoic acid]",10.2
6,"CS(=O)(=O)c1cccc(COc2c(C3CCC3)ccc(-c3cnc(N)cn3)c2F)c1 [Compound 6, 5-(4-Cyclobutyl-2-fluoro-3-{[3-(methylsulfonyl)benzyl]oxy}phenyl)pyrazin-2-amine]",13.6
7,"CS(=O)(=O)c1ccc(COc2c(C3CCC3)ccc(-c3cnc(N)cn3)c2F)cc1 [Compound 7, 5-(4-Cyclobutyl-2-fluoro-3-{[4-(methylsulfonyl)benzyl]oxy}phenyl)pyrazin-2-amine]",7.4
8,"CC(=O)c1ccc(COc2c(C3CCC3)ccc(-c3cnc(N)cn3)c2F)cc1 [Compound 12, 1-(4-{[3-(5-Aminopyrazin-2-yl)-6-cyclobutyl-2-fluorophenoxy]methyl}phenyl)ethanone]",~89.9
9,"Nc1cnc(-c2ccc(C3CCC3)c(OCc3cccnc3)c2F)cn1 [Compound 13, 5-[4-Cyclobutyl-2-fluoro-3-(pyridin-3-ylmethoxy)phenyl]pyrazin-2-amine]",27.1
10,"N#Cc1cccc(COc2c(C3CCC3)ccc(-c3cnc(N)cn3)c2F)c1 [Compound 16, 3-{[3-(5-Aminopyrazin-2-yl)-6-cyclobutyl-2-fluorophenoxy]methyl}benzonitrile]",19.9
11,"NC(=O)c1cccc(COc2c(C3CCC3)ccc(-c3cnc(N)cn3)c2F)c1 [Compound 17, 3-{[3-(5-Aminopyrazin-2-yl)-6-cyclobutyl-2-fluorophenoxy]methyl}benzamide]",12.5
12,"N#Cc1ccccc1COc1c(C2CCC2)ccc(-c2cnc(N)cn2)c1F [Compound 18, 2-{[3-(5-Aminopyrazin-2-yl)-6-cyclobutyl-2-fluorophenoxy]methyl}benzonitrile]",59
13,"NC(=O)c1ccccc1COc1c(C2CCC2)ccc(-c2cnc(N)cn2)c1F [Compound 19, 2-{[3-(5-Aminopyrazin-2-yl)-6-cyclobutyl-2-fluorophenoxy]methyl}benzamide]",3.8
14,"Nc1cnc(-c2ccc(C3CCC3)c(OCc3ccc(CC(=O)O)cc3)c2F)cn1 [Compound 23, (4-{[3-(5-Aminopyrazin-2-yl)-6-cyclobutyl-2-fluorophenoxy]methyl}phenyl)acetic acid]",3.7
15,"CNS(=O)(=O)c1ccc(COc2c(C3CCC3)ccc(-c3cnc(N)cn3)c2F)cc1 [Compound 27, 4-{[3-(5-Aminopyrazin-2-yl)-6-cyclobutyl-2-fluorophenoxy]methyl}-N-methylbenzenesulfonamide]",6.4
16,"Nc1cnc(-c2ccc(C3CCC3)c(OCc3ccc(F)cc3)c2F)cn1 [Compound 28, 5-{4-Cyclobutyl-2-fluoro-3-[(4-fluorobenzyl)oxy]phenyl}pyrazin-2-amine]",66.2
17,"Nc1cnc(-c2ccc(C3CCC3)c(OCc3cccc(F)c3)c2F)cn1 [Compound 29, 5-{4-Cyclobutyl-2-fluoro-3-[(3-fluorobenzyl)oxy]phenyl}pyrazin-2-amine]",24.6
18,"Nc1cnc(-c2ccc(C3CCC3)c(OCc3ccccc3F)c2F)cn1 [Compound 30, 5-{4-Cyclobutyl-2-fluoro-3-[(2-fluorobenzyl)oxy]phenyl}pyrazin-2-amine]",33.5
19,"Nc1cnc(-c2ccc(C3CCC3)c(OCc3ccc(F)c(F)c3)c2F)cn1 [Compound 33, 5-{4-Cyclobutyl-3-[(3,4-difluorobenzyl)oxy]-2-fluorophenyl}pyrazin-2-amine]",~250
20,"Nc1cnc(-c2ccc(C3CCC3)c(OCc3cc(Cl)ccc3Cl)c2F)cn1 [Compound 38, 5-{4-Cyclobutyl-3-[(2,5-dichlorobenzyl)oxy]-2-fluorophenyl}pyrazin-2-amine]",~250
21,"Nc1cnc(-c2ccc(C3CCC3)c(OCc3ccccc3C(=O)O)c2F)cn1 [Example 46, 2-{[3-(5-Aminopyrazin-2-yl)-6-cyclobutyl-2-fluorophenoxy]methyl}benzoic acid]",6.9
22,"CS(=O)(=O)N1CCC(COc2c(C3CCC3)ccc(-c3cnc(N)cn3)c2F)CC1 [Example 68, 5-(4-Cyclobutyl-2-fluoro-3-{[1-(methylsulfonyl)piperidin-4-yl]methoxy}phenyl)pyrazin-2-amine]",136
23,"CCOC(=O)c1ccc(COc2c(C3CCC3)ccc(-c3cnc(N)cn3)c2F)o1 [Example 73, Ethyl 5-{[3-(5-aminopyrazin-2-yl)-6-cyclobutyl-2-fluorophenoxy]methyl}furan-2-carboxylate]",275
24,"CC(C)(C)OC(=O)N1CCC(COc2c(C3CCC3)ccc(-c3cnc(N)cn3)c2F)CC1 [Example 74, tert-Butyl 4-{[3-(5-aminopyrazin-2-yl)-6-cyclobutyl-2-fluorophenoxy]methyl}piperidine-1-carboxylate]",175
25,"Nc1cnc(-c2ccc(C3CCC3)c(OCc3cc(S(F)(F)(F)(F)F)ccc3F)c2F)cn1 [Example 77, 5-(4-Cyclobutyl-2-fluoro-3-{[2-fluoro-5-(pentafluoro-lambda˜6˜-sulfanyl)benzyl]oxy}phenyl)pyrazin-2-amine]",~200
26,"Nc1cnc(-c2ccc(C3CCC3)c(OCc3ccc(C(=O)O)o3)c2F)cn1 [Example 85, 5-{[3-(5-Aminopyrazin-2-yl)-6-cyclobutyl-2-fluorophenoxy]methyl}furan-2-carboxylic acid]",28.1
27,"Nc1cnc(-c2ccc(C3CCC3)c(Oc3nccc(-c4ccccc4)n3)c2F)cn1 [Example 87, 5-{4-Cyclobutyl-2-fluoro-3-[(4-phenylpyrimidin-2-yl)oxy]phenyl}pyrazin-2-amine]",2.1
28,"CC(C)c1ccnc(Oc2c(C3CCC3)ccc(-c3cnc(N)cn3)c2F)n1 [Example 90, 5-(4-Cyclobutyl-2-fluoro-3-{[4-(1-methylethyl)pyrimidin-2-yl]oxy}phenyl)pyrazin-2-amine]",53.8

# Next, values leading:
row,Ki [nM],SMILES
1,52.6,"COc1c(C2CCC2)ccc(-c2cnc(N)cn2)c1F [A, 5-(4-Cyclobutyl-2-fluoro-3-methoxyphenyl)pyrazin-2-amine]"
2,83.9,"Nc1cnc(-c2ccc(C3CCC3)c(O)c2F)cn1 [B, 3-(5-Aminopyrazin-2-yl)-6-cyclobutyl-2-fluorophenol]"
3,22.6,"Nc1cnc(-c2ccc(C3CCC3)c(OCc3ccncc3)c2F)cn1 [Compound 14, 5-[4-Cyclobutyl-2-fluoro-3-(pyridin-4-ylmethoxy)phenyl]pyrazin-2-amine]"
4,16.2,"Nc1cnc(-c2ccc(C3CCC3)c(OCc3ccccn3)c2F)cn1 [Compound 24, 5-[4-Cyclobutyl-2-fluoro-3-(pyridin-2-ylmethoxy)phenyl]pyrazin-2-amine]"
5,~134,"CC(C)(C)OC(=O)COc1c(C2CCC2)ccc(-c2cnc(N)cn2)c1F [Example 49, tert-Butyl [3-(5-aminopyrazin-2-yl)-6-cyclobutyl-2-fluorophenoxy]acetate]"
6,787,"Nc1cnc(-c2ccc(C3CCC3)c(OCC(=O)O)c2F)cn1 [Example 50, [3-(5-Aminopyrazin-2-yl)-6-cyclobutyl-2-fluorophenoxy]acetic acid]"
7,14,"Cc1ccnc(Oc2c(C3CCC3)ccc(-c3cnc(N)cn3)c2F)n1 [Example 69, 5-{4-Cyclobutyl-2-fluoro-3-[(4-methylpyrimidin-2-yl)oxy]phenyl}pyrazin-2-amine]"
8,34.2,"Cc1nc(COc2c(C3CCC3)ccc(-c3cnc(N)cn3)c2F)no1 [Example 70, 5-{4-Cyclobutyl-2-fluoro-3-[(5-methyl-1,2,4-oxadiazol-3-yl)methoxy]phenyl}pyrazin-2-amine]"
9,421,"Nc1cnc(-c2ccc(C3CCC3)c(OCC3CCCCC3)c2F)cn1 [Example 71, 5-[4-Cyclobutyl-3-(cyclohexylmethoxy)-2-fluorophenyl]pyrazin-2-amine]"
10,23.7,"Nc1cnc(-c2ccc(C3CCC3)c(OCC3CC3)c2F)cn1 [Example 72, 5-[4-Cyclobutyl-3-(cyclopropylmethoxy)-2-fluorophenyl]pyrazin-2-amine]"
11,208,"Nc1cnc(-c2ccc(C3CCC3)c(OCC3CCC3)c2F)cn1 [Example 82, 5-[4-Cyclobutyl-3-(cyclobutylmethoxy)-2-fluorophenyl]pyrazin-2-amine]"
12,44.5,"Nc1cnc(-c2ccc(C3CCC3)c(OCc3ccccc3)c2F)cn1 [Example 83, 5-[3-(Benzyloxy)-4-cyclobutyl-2-fluorophenyl]-pyrazin-2-amine]"
13,6.2,"Cc1cc(N)nc(Oc2c(C3CCC3)ccc(-c3cnc(N)cn3)c2F)n1 [Example 86, 2-[3-(5-Aminopyrazin-2-yl)-6-cyclobutyl-2-fluorophenoxy]-6-methylpyrimidin-4-amine]"
14,3.5,"CSc1ccnc(Oc2c(C3CCC3)ccc(-c3cnc(N)cn3)c2F)n1 [Example 88, 5-(4-Cyclobutyl-2-fluoro-3-{[4-(methylsulfanyl)pyrimidin-2-yl]oxy}phenyl)pyrazin-2-amine]"
15,5.3,"Cc1cc(C)nc(Oc2c(C3CCC3)ccc(-c3cnc(N)cn3)c2F)n1 [Example 89, 5-{4-Cyclobutyl-3-[(4,6-dimethylpyrimidin-2-yl)oxy]-2-fluorophenyl}pyrazin-2-amine]"
